Here are results for 1 molecule from BindingDB's records for doi:10.1016/j.bmcl.2016.06.076 (Leiden University, 2016).

The assay has as its target T1, Diacylglycerol lipase-alpha (Homo sapiens, UniProt Q9Y4D2).
T1 sequence (Q9Y4D2 whole entry): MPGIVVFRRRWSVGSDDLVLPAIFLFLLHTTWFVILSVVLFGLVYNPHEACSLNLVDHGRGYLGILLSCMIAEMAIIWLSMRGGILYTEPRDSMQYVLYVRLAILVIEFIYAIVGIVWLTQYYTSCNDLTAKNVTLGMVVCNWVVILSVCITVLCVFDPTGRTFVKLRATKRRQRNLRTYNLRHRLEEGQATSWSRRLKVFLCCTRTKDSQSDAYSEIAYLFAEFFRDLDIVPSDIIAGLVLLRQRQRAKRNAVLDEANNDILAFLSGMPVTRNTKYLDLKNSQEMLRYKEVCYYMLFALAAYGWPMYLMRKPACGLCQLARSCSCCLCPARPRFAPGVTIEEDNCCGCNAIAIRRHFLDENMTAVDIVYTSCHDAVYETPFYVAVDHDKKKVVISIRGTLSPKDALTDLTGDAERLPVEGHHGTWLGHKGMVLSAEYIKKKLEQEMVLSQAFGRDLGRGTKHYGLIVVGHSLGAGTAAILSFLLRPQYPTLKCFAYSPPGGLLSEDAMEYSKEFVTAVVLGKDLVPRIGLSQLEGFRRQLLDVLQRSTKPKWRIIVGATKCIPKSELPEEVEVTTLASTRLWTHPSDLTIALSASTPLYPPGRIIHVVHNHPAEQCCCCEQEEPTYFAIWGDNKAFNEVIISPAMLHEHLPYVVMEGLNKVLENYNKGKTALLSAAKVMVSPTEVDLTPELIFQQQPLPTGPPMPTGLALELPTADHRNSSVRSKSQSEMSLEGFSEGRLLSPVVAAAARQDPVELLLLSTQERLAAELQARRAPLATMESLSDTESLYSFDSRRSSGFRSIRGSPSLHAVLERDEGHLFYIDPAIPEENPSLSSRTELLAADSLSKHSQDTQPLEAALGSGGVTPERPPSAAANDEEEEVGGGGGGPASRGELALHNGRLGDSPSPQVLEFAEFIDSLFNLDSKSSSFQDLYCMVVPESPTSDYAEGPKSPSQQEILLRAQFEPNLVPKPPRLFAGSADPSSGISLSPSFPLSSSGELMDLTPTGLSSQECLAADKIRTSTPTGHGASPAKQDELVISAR
The experiment in a line: Inhibition of human DAGLalpha expressed in HEK293T cell membrane fractions using PNP butyrate as substrate preincubated for 20 mins followed by substrate addition by colorimetric surrogate substrate assay.

pIC50: −log10 of the molar value.

For `O=C(CCCCCc1ccccc1)c1nc2ncccc2o1` [1-(oxazolo[4,5-b]pyridin-2-yl)-6-phenylhexan-1-one], the pIC50 (as a rule, −log10 of the IC50, conventionally taken in molar units) is 7.40.
